Tests used:
Format in all cases: cell-based
HT29 = assay: Cell proliferative assay (MTT), HT29; conditions: Homo sapiens, HT-29, 72 h incubation, read-out: IC50s HT29
Protocol: (§1) The synthesized compounds were evaluated for their cytotoxin activity against suspended tumor cells. These cells were seeded on 96-well plates and incubated for 24 h. Selected compounds were added at various doses and incubated for 72 h, MTT was then added, and the absorbance was measured at a wavelength of 590 nm. IC50 values are expressed as the mean±SEM from the dose-response curves of at least three independent experiments.

SW620 = assay: Cell proliferative assay (MTT), SW620; conditions: Homo sapiens, SW-620, 72 h incubation, read-out: IC50s SW620
Protocol: as §1

K562 = assay: Cell proliferative assay (MTT), K562; conditions: Homo sapiens, 72 h incubation, read-out: IC50s K562
Procedure, shortened: (§2)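 IC50 values (mean±SEM, at least three independent experiments) come from dose-response curves of MTT absorbance at 590 nm. Treatment lasted 72 h, starting 24 h after seeding.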

HepG2 = assay: Cell proliferative assay (MTT), HepG2; conditions: Homo sapiens, 72 h incubation, read-out: IC50s HepG2
Procedure, shortened: as §2

HCT116 = assay: Cell proliferative assay (MTT), HCT116; conditions: Homo sapiens, HCT-116, 72 h incubation, read-out: IC50s HCT116
Protocol: as §1

tumor cells = assay: Cell proliferative assay (MTT), summary over tumor cells; conditions: summary in words of Table 1; colon, liver, leukemia lines
Protocol: as §1

SMILES | IC50 (HT29) [µM] | IC50 (SW620) [µM] | IC50 (K562) [µM] | IC50 (HepG2) [µM] | IC50 (HCT116) [µM] | inhibitory activity against tumor cells (tumor cells)
COc1ccc(C(=O)/C=C/c2ccc(Br)cc2)c2c1C=CC(C)(C)O2 [SKLBC-8, (E)-3-(4-bromophenyl)-1-(5-methoxy-2,2-dimethyl-2H-chromen-8-yl)prop-2-en-1-one] | > 10 | > 10 | > 10 | > 10 | 5.82 | –
COc1ccc(C(=O)/C=C/c2ccc(-c3ccccc3)cc2)c2c1C=CC(C)(C)O2 [SKLBC-11, (E)-3-([1,1′-biphenyl]-4-yl)-1-(5-methoxy-2,2-dimethyl-2H-chromen-8-yl)prop-2-en-1-one] | > 10 | > 10 | > 10 | > 10 | > 10 | –
COc1ccc(C(=O)/C=C/c2ccc(N(c3ccccc3)c3ccccc3)cc2)c2c1C=CC(C)(C)O2 [SKLBC-13, (E)-3-(4-(diphenylamino)phenyl)-1-(5-methoxy-2,2-dimethyl-2H-chromen-8-yl)prop-2-en-1-one] | > 10 | > 10 | > 10 | > 10 | 4.53 | –
COc1ccc(C(=O)/C=C/c2ccc(-n3ccnc3)cc2)c2c1C=CC(C)(C)O2 [SKLBC-15, (E)-3-(4-(1H-imidazol-1-yl)phenyl)-1-(5-methoxy-2,2-dimethyl-2H-chromen-8-yl)prop-2-en-1-one] | 6.6 | > 10 | > 10 | > 10 | 8.05 | –
COc1ccc(C(=O)/C=C/c2ccc(C(F)(F)F)cc2)c2c1C=CC(C)(C)O2 [SKLBC-19, (E)-1-(5-methoxy-2,2-dimethyl-2H-chromen-8-yl)-3-(4-(trifluoromethyl)phenyl)prop-2-en-1-one] | > 10 | > 10 | > 10 | > 10 | > 10 | –
COc1ccc(C(=O)/C=C/c2ccccc2)c2c1C=CC(C)(C)O2 [SKLBC-20, (E)-1-(5-methoxy-2,2-dimethyl-2H-chromen-8-yl)-3-phenylprop-2-en-1-one] | > 10 | > 10 | > 10 | > 10 | > 10 | –
COc1ccc(/C=C/C(=O)c2ccc(OC)c3c2OC(C)(C)C=C3)cn1 [SKLBC-21, (E)-1-(5-methoxy-2,2-dimethyl-2H-chromen-8-yl)-3-(6-methoxypyridin-3-yl)prop-2-en-1-one] | > 10 | > 10 | > 10 | > 10 | > 10 | –
COc1ccc(C(=O)/C=C/c2ccc(O)cc2)c2c1C=CC(C)(C)O2 [SKLBC-22, (E)-3-(4-hydroxyphenyl)-1-(5-methoxy-2,2-dimethyl-2H-chromen-8-yl)prop-2-en-1-one] | > 10 | > 10 | > 10 | > 10 | > 10 | –
COc1ccc(C(=O)/C=C/c2cccc(O)c2)c2c1C=CC(C)(C)O2 [SKLBC-23, (E)-3-(3-hydroxyphenyl)-1-(5-methoxy-2,2-dimethyl-2H-chromen-8-yl)prop-2-en-1-one] | > 10 | > 10 | > 10 | > 10 | > 10 | –
COc1ccc(C(=O)/C=C/c2ccc(OC)c(OC)c2OC)c2c1C=CC(C)(C)O2 [SKLBC-24, (E)-1-(5-methoxy-2,2-dimethyl-2H-chromen-8-yl)-3-(2,3,4-trimethoxyphenyl)prop-2-en-1-one] | > 10 | > 10 | > 10 | > 10 | > 10 | –
COc1ccc(C(=O)/C=C/c2cccc(C(F)(F)F)c2)c2c1C=CC(C)(C)O2 [SKLBC-25, (E)-1-(5-methoxy-2,2-dimethyl-2H-chromen-8-yl)-3-(3-(trifluoromethyl)phenyl)prop-2-en-1-one] | > 10 | > 10 | > 10 | > 10 | 9.71 | –
CCOc1cc(/C=C/C(=O)c2ccc(OC)c3c2OC(C)(C)C=C3)ccc1O [SKLBC-26, (E)-3-(3-ethoxy-4-hydroxyphenyl)-1-(5-methoxy-2,2-dimethyl-2H-chromen-8-yl)prop-2-en-1-one] | > 10 | > 10 | > 10 | > 10 | > 10 | –
COc1ccc(C(=O)/C=C/c2ccsc2)c2c1C=CC(C)(C)O2 [SKLBC-27, (E)-1-(5-methoxy-2,2-dimethyl-2H-chromen-8-yl)-3-(thiophen-3-yl)prop-2-en-1-one] | > 10 | > 10 | > 10 | > 10 | > 10 | –
COc1ccc(C(=O)/C=C/c2ccc(O)c(Br)c2)c2c1C=CC(C)(C)O2 [SKLBC-29, (E)-3-(3-bromo-4-hydroxyphenyl)-1-(5-methoxy-2,2-dimethyl-2H-chromen-8-yl)prop-2-en-1-one] | > 10 | > 10 | > 10 | > 10 | > 10 | –
COc1cc(/C=C/C(=O)c2ccc(OC)c3c2OC(C)(C)C=C3)cc(OC)c1O [SKLBC-30, (E)-3-(4-hydroxy-3,5-dimethoxyphenyl)-1-(5-methoxy-2,2-dimethyl-2H-chromen-8-yl)prop-2-en-1-one] | > 10 | > 10 | > 10 | > 10 | > 10 | –
COc1ccc(C(=O)/C=C/c2ccco2)c2c1C=CC(C)(C)O2 [SKLBC-31, (E)-3-(furan-2-yl)-1-(5-methoxy-2,2-dimethyl-2H-chromen-8-yl)prop-2-en-1-one] | > 10 | > 10 | > 10 | > 10 | > 10 | –
COc1ccc(C(=O)/C=C/c2cccc3ccccc23)c2c1C=CC(C)(C)O2 [SKLBC-32, (E)-1-(5-methoxy-2,2-dimethyl-2H-chromen-8-yl)-3-(naphthalen-1-yl)prop-2-en-1-one] | > 10 | > 10 | > 10 | > 10 | > 10 | –
COc1ccc(C(=O)/C=C/c2ccc(Cl)cc2)c2c1C=CC(C)(C)O2 [SKLBC-34, (E)-3-(4-chlorophenyl)-1-(5-methoxy-2,2-dimethyl-2H-chromen-8-yl)prop-2-en-1-one] | > 10 | > 10 | > 10 | > 10 | > 10 | –
COc1ccc(C(=O)/C=C/c2cccc(Cl)c2)c2c1C=CC(C)(C)O2 [SKLBC-35, (E)-3-(3-chlorophenyl)-1-(5-methoxy-2,2-dimethyl-2H-chromen-8-yl)prop-2-en-1-one] | > 10 | > 10 | > 10 | > 10 | > 10 | –
COc1ccc(C(=O)/C=C/c2cccs2)c2c1C=CC(C)(C)O2 [SKLBC-36, (E)-1-(5-methoxy-2,2-dimethyl-2H-chromen-8-yl)-3-(thiophen-2-yl)prop-2-en-1-one] | > 10 | > 10 | > 10 | > 10 | > 10 | –
COc1ccc(C(=O)/C=C/c2ccc(Cl)c(Cl)c2)c2c1C=CC(C)(C)O2 [SKLBC-37, (E)-3-(3,4-dichlorophenyl)-1-(5-methoxy-2,2-dimethyl-2H-chromen-8-yl)prop-2-en-1-one] | > 10 | > 10 | > 10 | > 10 | 9.44 | –
COc1ccc(C(=O)/C=C/c2cc(Cl)ccc2O)c2c1C=CC(C)(C)O2 [SKLBC-38, (E)-3-(5-chloro-2-hydroxyphenyl)-1-(5-methoxy-2,2-dimethyl-2H-chromen-8-yl)prop-2-en-1-one] | > 10 | > 10 | > 10 | > 10 | 5.24 | –
COc1ccc(C(=O)/C=C/c2ccccc2Cl)c2c1C=CC(C)(C)O2 [SKLBC-39, (E)-3-(2-chlorophenyl)-1-(5-methoxy-2,2-dimethyl-2H-chromen-8-yl)prop-2-en-1-one] | > 10 | > 10 | > 10 | > 10 | > 10 | –
COc1ccccc1/C=C/C(=O)c1ccc(OC)c2c1OC(C)(C)C=C2 [SKLBC-40, (E)-1-(5-methoxy-2,2-dimethyl-2H-chromen-8-yl)-3-(2-methoxyphenyl)prop-2-en-1-one] | > 10 | > 10 | > 10 | > 10 | > 10 | –
CCOc1ccc(C(=O)/C=C/c2ccc(N(CC)CC)cc2)c2c1C=CC(C)(C)O2 [SKLBC-41, (E)-3-(4-(diethylamino)phenyl)-1-(5-ethoxy-2,2-dimethyl-2H-chromen-8-yl)prop-2-en-1-one] | – | – | – | – | – | better inhibitory activity
